Assay results published in ChEMBL document CHEMBL1201862, “PubChem BioAssay data set” (2004).
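Exposure lasted 48 hours, with cells grown in 96-well plates and compounds tested at five concentrations. The concentration for 50% growth inhibition is given as GI50.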 Active and inactive are the calls of the source. No stated cut-off is given here; in the data, active = GI50 up to about 1.1 µM and inactive = higher.

What was measured:
Experiment in all cases: inhibition of tumour cell growth, NCI panel, 48 h
[1] = tested on: A498
[2] = tested on: UACC-257
[3] = tested on: RXF 393
[4] = tested on: SNB-19
[5] = tested on: SK-OV-3
[6] = tested on: Malme-3M
[7] = tested on: NCI-H460
[8] = tested on: OVCAR-4
[9] = tested on: HOP-18
[10] = tested on: SK-MEL-5
[11] = tested on: HCC 2998
[12] = tested on: SF-295
[13] = tested on: HOP-92
[14] = tested on: RPMI-8226
[15] = tested on: KM-20L2
[16] = tested on: DMS-273
[17] = tested on: CCRF-CEM
[18] = tested on: NCI-H522
[19] = tested on: IGROV-1
[20] = tested on: SW-620
[21] = tested on: A549
[22] = tested on: LXFL 529
[23] = tested on: COLO 205
[24] = tested on: NCI-H226
[25] = tested on: OVCAR-3
[26] = tested on: M14
[27] = tested on: 786-0
[28] = tested on: HCT-116
[29] = tested on: SF-268
[30] = tested on: MOLT-4
[31] = tested on: OVCAR-5
[32] = tested on: HCT-15
[33] = tested on: SR
[34] = tested on: U-251
[35] = tested on: SN12C
[36] = tested on: HL-60
[37] = tested on: ACHN
[38] = tested on: SK-MEL-28
[39] = tested on: UACC-62
[40] = tested on: OVCAR-8
[41] = tested on: KM12
[42] = tested on: DLD-1
[43] = tested on: SNB-78
[44] = tested on: HOP-62
[45] = tested on: RXF 631
[46] = tested on: CAKI-1
[47] = tested on: K562
[48] = tested on: LOX IMVI
[49] = tested on: TK-10
[50] = tested on: SF-539
[51] = tested on: DMS-114
[52] = tested on: UO-31
[53] = tested on: SK-MEL-2
[54] = tested on: SNB-75
[55] = tested on: EKVX
[56] = tested on: HT-29
[57] = tested on: M19-MEL
[58] = tested on: XF498
[59] = tested on: NCI-H23

N#CC(C#N)C(c1ccccc1)c1ccccc1
GI50 [1]: > 100 µM (inactive)
GI50 [2]: > 100 µM (inactive)
GI50 [3]: > 100 µM (inactive)
GI50 [4]: > 100 µM (inactive)
GI50 [5]: > 100 µM (inactive)
GI50 [6]: > 100 µM (inactive)
GI50 [7]: > 100 µM (inactive)
GI50 [8]: > 100 µM (inactive)
GI50 [9]: > 100 µM (inactive)
GI50 [10]: > 100 µM (inactive)
GI50 [11]: > 100 µM (inactive)
GI50 [12]: > 100 µM (inactive)
GI50 [13]: > 100 µM (inactive)
GI50 [14]: > 100 µM (inactive)
GI50 [15]: > 100 µM (inactive)
GI50 [16]: > 100 µM (inactive)
GI50 [17]: > 100 µM (inactive)
GI50 [18]: > 100 µM (inactive)
GI50 [19]: > 100 µM (inactive)
GI50 [20]: > 100 µM (inactive)
GI50 [21]: > 100 µM (inactive)
GI50 [22]: > 100 µM (inactive)
GI50 [23]: > 100 µM (inactive)
GI50 [24]: > 100 µM (inactive)
GI50 [25]: > 100 µM (inactive)
GI50 [26]: > 100 µM (inactive)
GI50 [27]: > 100 µM (inactive)
GI50 [28]: > 100 µM (inactive)
GI50 [29]: > 100 µM (inactive)
GI50 [30]: 82 µM (inactive)
GI50 [31]: > 100 µM (inactive)
GI50 [32]: > 100 µM
GI50 [33]: > 100 µM (inactive)
GI50 [34]: > 100 µM (inactive)
GI50 [35]: > 100 µM (inactive)
GI50 [36]: > 100 µM (inactive)
GI50 [37]: > 100 µM (inactive)
GI50 [38]: > 100 µM (inactive)
GI50 [39]: > 100 µM (inactive)
GI50 [40]: > 100 µM (inactive)
GI50 [41]: > 100 µM (inactive)
GI50 [42]: > 100 µM (inactive)
GI50 [43]: > 100 µM (inactive)
GI50 [44]: > 100 µM (inactive)
GI50 [45]: > 100 µM (inactive)
GI50 [46]: > 100 µM (inactive)
GI50 [47]: 91 µM (inactive)
GI50 [48]: > 100 µM (inactive)
GI50 [49]: > 100 µM (inactive)
GI50 [50]: > 100 µM (inactive)
GI50 [51]: 70.8 µM (inactive)
GI50 [52]: > 100 µM (inactive)
GI50 [53]: > 100 µM (inactive)

Cc1cc(NCCCCCCNc2cc(C)nc3ccc(Cl)cc23)c2cc(Cl)ccc2n1
GI50 [1]: > 100 µM (inactive)
GI50 [2]: 20 µM (inactive)
GI50 [3]: 16.1 µM (inactive)
GI50 [4]: 25.9 µM (inactive)
GI50 [5]: > 100 µM (inactive)
GI50 [6]: 28.1 µM (inactive)
GI50 [54]: 17.4 µM (inactive)
GI50 [7]: 14.8 µM (inactive)
GI50 [8]: 20 µM (inactive)
GI50 [10]: 18.3 µM (inactive)
GI50 [11]: 16.4 µM (inactive)
GI50 [12]: 16.6 µM (inactive)
GI50 [14]: 47.4 µM (inactive)
GI50 [15]: 15.8 µM (inactive)
GI50 [16]: 20.4 µM (inactive)
GI50 [17]: 3.63 µM (inactive)
GI50 [18]: 17 µM (inactive)
GI50 [55]: 15.8 µM (inactive)
GI50 [21]: 20.8 µM (inactive)
GI50 [22]: > 100 µM (inactive)
GI50 [23]: 18.3 µM (inactive)
GI50 [24]: > 100 µM (inactive)
GI50 [25]: 18 µM (inactive)
GI50 [26]: > 100 µM (inactive)
GI50 [27]: 17.4 µM (inactive)
GI50 [28]: 14.7 µM (inactive)
GI50 [29]: 14.7 µM (inactive)
GI50 [30]: 27.7 µM (inactive)
GI50 [56]: 15.2 µM (inactive)
GI50 [31]: 19.7 µM (inactive)
GI50 [32]: 18 µM
GI50 [33]: 2.09 µM (inactive)
GI50 [34]: 16.9 µM (inactive)
GI50 [35]: 22 µM (inactive)
GI50 [36]: 7.4 µM (inactive)
GI50 [37]: 33 µM (inactive)
GI50 [38]: 17.2 µM (inactive)
GI50 [39]: 19.5 µM (inactive)
GI50 [40]: 18.5 µM (inactive)
GI50 [41]: 17.2 µM (inactive)
GI50 [57]: 21.4 µM (inactive)
GI50 [42]: 16.8 µM (inactive)
GI50 [43]: 22.7 µM (inactive)
GI50 [58]: 18.1 µM (inactive)
GI50 [44]: 75.5 µM (inactive)
GI50 [59]: 15 µM (inactive)
GI50 [45]: > 100 µM (inactive)
GI50 [46]: 33 µM (inactive)
GI50 [47]: 2.49 µM (inactive)
GI50 [48]: 14.9 µM (inactive)
GI50 [49]: 27 µM (inactive)
GI50 [50]: 15.9 µM (inactive)
GI50 [51]: 18.9 µM (inactive)
GI50 [52]: 23.5 µM (inactive)
GI50 [53]: 26.2 µM (inactive)
